Assay results reported in ChEMBL document CHEMBL1201862, “PubChem BioAssay data set” (2004).
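Interpolation was linear, between the two tested concentrations surrounding the appropriate level; five concentrations were tested over 48 hours in 96-well plates. Abbreviation: GI50, concentration required for 50% inhibition of growth.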 The source made the active and inactive calls. Cut-off read from the data, not from the text of the source: active = GI50 up to about 1.1 µM and inactive = higher. Where a SMILES comes first, the peptide text is derived from it. [ ]: non-standard residue; d: D form. The star is where a group is joined. NMeF = CN[CH](Cc1ccccc1)C(=O)O; NMeV = CN[CH](C(=O)O)C(C)C; Boc = CC(C)(C)OC(=O)*; OBn = c1ccc(CO*)cc1

Legend:
Experiment in all cases: NCI anticancer screen, dose series, 48 h
LOX IMVI = test system: LOX IMVI
UACC-62 = test system: UACC-62
SK-MEL-2 = test system: SK-MEL-2
OVCAR-4 = test system: OVCAR-4
OVCAR-5 = test system: OVCAR-5
MOLT-4 = test system: MOLT-4
HCT-116 = test system: HCT-116
UACC-257 = test system: UACC-257
OVCAR-8 = test system: OVCAR-8
RPMI-8226 = test system: RPMI-8226
A549 = test system: A549
COLO 205 = test system: COLO 205
CAKI-1 = test system: CAKI-1
SR = test system: SR
HCC 2998 = test system: HCC 2998
SK-MEL-5 = test system: SK-MEL-5

Measured: GI50

CCC1(CC)C(=O)NC(=O)NC1=S
inactive: LOX IMVI > 100 µM | UACC-62 > 100 µM | SK-MEL-2 > 100 µM | OVCAR-4 > 100 µM | OVCAR-5 > 100 µM | MOLT-4 > 100 µM | HCT-116 > 100 µM | UACC-257 > 100 µM | OVCAR-8 > 100 µM | RPMI-8226 > 100 µM | A549 > 100 µM | COLO 205 > 100 µM

COc1ccc(NC(=O)CC2SC(Nc3ccc(Cl)cc3C)=NC2=O)c([N+](=O)[O-])c1 (stereo not drawn)
inactive: LOX IMVI > 100 µM | UACC-62 > 100 µM | SK-MEL-2 > 100 µM | OVCAR-4 > 100 µM | OVCAR-5 > 100 µM | MOLT-4 > 100 µM | CAKI-1 > 100 µM | HCT-116 > 100 µM | UACC-257 > 100 µM | SR > 100 µM | OVCAR-8 > 100 µM | HCC 2998 > 100 µM | RPMI-8226 > 100 µM | SK-MEL-5 > 100 µM | A549 > 100 µM

O=c1c2c(c1=O)-c1ccccc1CN2
inactive: LOX IMVI > 100 µM | UACC-62 > 100 µM | SK-MEL-2 > 100 µM | OVCAR-4 > 100 µM | OVCAR-5 > 100 µM | MOLT-4 > 100 µM | CAKI-1 > 100 µM | HCT-116 > 100 µM | UACC-257 > 100 µM | OVCAR-8 > 100 µM | HCC 2998 > 100 µM | RPMI-8226 > 100 µM | SK-MEL-5 > 100 µM | A549 > 100 µM | COLO 205 > 100 µM

CC(C)OP(=O)(OC(C)C)/C(=N/Nc1ccccc1[N+](=O)[O-])NCCN/C(=N\Nc1ccccc1[N+](=O)[O-])P(=O)(OC(C)C)OC(C)C
inactive: LOX IMVI 30.2 µM | UACC-62 19.2 µM | SK-MEL-2 19.6 µM | OVCAR-4 48.1 µM | OVCAR-5 24.2 µM | MOLT-4 43.2 µM | CAKI-1 25.6 µM | HCT-116 27.9 µM | UACC-257 29.2 µM | OVCAR-8 39.5 µM | HCC 2998 39.4 µM | RPMI-8226 28.2 µM | SK-MEL-5 > 10 µM | A549 29.4 µM | COLO 205 25.2 µM

[O-][n+]1c2c([n+]([O-])c3ccccc31)CCCCCCCCCC2
inactive: LOX IMVI > 100 µM | UACC-62 > 100 µM | SK-MEL-2 > 100 µM | MOLT-4 45.5 µM | CAKI-1 > 100 µM | HCT-116 > 100 µM | UACC-257 67.8 µM | SR 63.4 µM | RPMI-8226 > 100 µM | A549 > 100 µM

O=P1(Oc2ccccc2)C(c2ccccc2)C(c2ccccc2)=NN1c1ccccc1 (stereo not drawn)
inactive: LOX IMVI 17.3 µM | UACC-62 18.2 µM | SK-MEL-2 15.9 µM | OVCAR-4 31.6 µM | OVCAR-5 25.4 µM | MOLT-4 22 µM | CAKI-1 23.9 µM | HCT-116 17.2 µM | UACC-257 27.9 µM | OVCAR-8 37 µM | HCC 2998 28.8 µM | A549 29.2 µM | COLO 205 18.9 µM

O=C(O)c1ccc(C2C3C=CC(C3)C2[N+](=O)[O-])cc1 (stereo not drawn)
inactive: LOX IMVI > 100 µM | UACC-62 > 100 µM | SK-MEL-2 > 100 µM | MOLT-4 > 100 µM | CAKI-1 > 100 µM | UACC-257 > 100 µM | OVCAR-8 > 100 µM | HCC 2998 > 100 µM | RPMI-8226 > 100 µM | SK-MEL-5 > 100 µM | A549 > 100 µM | COLO 205 > 100 µM

CC(C)(CN1CCCCC1)C(=O)CC(SCCN)c1ccc(Cl)cc1 (stereo not drawn)
inactive: LOX IMVI 2.09 µM | UACC-62 1.65 µM | SK-MEL-2 1.7 µM | OVCAR-4 3.1 µM | OVCAR-5 3.66 µM | MOLT-4 1.72 µM | CAKI-1 1.71 µM | HCT-116 2.37 µM | UACC-257 2.09 µM | OVCAR-8 2.04 µM | HCC 2998 1.85 µM | RPMI-8226 1.38 µM | SK-MEL-5 1.73 µM | A549 2.88 µM | COLO 205 1.6 µM

Cc1c(C)c([N+](=O)[O-])c2c(c1N)C(=O)c1ccccc1C2=O
inactive: LOX IMVI > 100 µM | UACC-62 > 100 µM | SK-MEL-2 > 100 µM | OVCAR-5 > 100 µM | MOLT-4 > 100 µM | HCT-116 > 100 µM | UACC-257 > 100 µM | SR > 100 µM | OVCAR-8 > 100 µM | HCC 2998 > 100 µM | RPMI-8226 > 100 µM | SK-MEL-5 > 100 µM | A549 > 100 µM | COLO 205 58.9 µM

CC(=O)O[C@]12CCCC1C1(O)C(O)CCCC12 (stereo partly drawn)
inactive: LOX IMVI > 100 µM | UACC-62 > 100 µM | SK-MEL-2 > 100 µM | OVCAR-4 > 100 µM | MOLT-4 > 100 µM | HCT-116 > 100 µM | UACC-257 > 100 µM | SR > 100 µM | OVCAR-8 > 100 µM | RPMI-8226 > 100 µM | SK-MEL-5 > 100 µM | A549 > 100 µM | COLO 205 > 100 µM

O=C1C2c3[nH]c4ccccc4c3C3CCCCC3C2C(=O)N1c1ccccc1 (stereo not drawn)
inactive: LOX IMVI > 100 µM | UACC-62 > 100 µM | OVCAR-4 45.1 µM | OVCAR-5 > 100 µM | MOLT-4 64.7 µM | SR > 100 µM | OVCAR-8 > 100 µM | HCC 2998 > 100 µM | RPMI-8226 > 100 µM | SK-MEL-5 > 100 µM | A549 > 100 µM | COLO 205 > 100 µM

O=C(OC1CCC(=C2SCCCS2)[C@H]1C1SCCCS1)c1ccccc1 (stereo partly drawn)
inactive: LOX IMVI > 100 µM | UACC-62 45.4 µM | SK-MEL-2 > 100 µM | OVCAR-4 84.5 µM | MOLT-4 > 100 µM | HCT-116 88.3 µM | UACC-257 > 100 µM | OVCAR-8 > 100 µM | HCC 2998 > 100 µM | RPMI-8226 86.3 µM | A549 > 100 µM | COLO 205 > 100 µM

O=c1ncccn1C1OC(CO)C(O)C1O (stereo not drawn)
inactive: LOX IMVI > 100 µM | UACC-62 > 100 µM | SK-MEL-2 > 100 µM | OVCAR-4 > 100 µM | OVCAR-5 > 100 µM | CAKI-1 > 100 µM | HCT-116 > 100 µM | UACC-257 > 10 µM | OVCAR-8 > 100 µM | HCC 2998 > 100 µM | RPMI-8226 > 100 µM | A549 > 100 µM | COLO 205 > 100 µM

CC(C)C(NC(=O)OC(C)(C)C)C(=O)N(C)C(Cc1ccccc1)C(=O)N(C)C(C(=O)N(C)C(C(=O)OCc1ccccc1)C(C)C)C(C)C (stereo not drawn) (Boc-V[NMeF][NMeV][NMeV]-OBn; configuration not given here)
inactive: LOX IMVI > 100 µM | UACC-62 > 100 µM | MOLT-4 4.81 µM | HCT-116 66.5 µM | UACC-257 39.6 µM | SR 20.8 µM | OVCAR-8 > 100 µM | HCC 2998 44.2 µM | RPMI-8226 10.3 µM | SK-MEL-5 12.5 µM | A549 > 100 µM | COLO 205 > 100 µM
